Patent publication US8937041B2, “Macrocyclic hepatitis C serine protease inhibitors” (AbbVie, Inc., priority 2010, dated 2015)

Experiments:
[1] = biological target: recombinant HCV NS3 protease, genotype 1a (Hepatitis C virus genotype 1a, UniProt P27958); test: biochemical; settings: genotype 1a NS3 protease; read-out: IC50 in a 1a enzyme assay
[2] = biological target: recombinant HCV NS3 protease, genotype 1b (Hepatitis C virus genotype 1b, UniProt Q9WMX2); test: biochemical; settings: genotype 1b NS3 protease; read-out: IC50 in a 1b enzyme assay
recombinant HCV NS3 protease, genotype 1b, sequence (Q9WMX2 1027-1657, other chains not shown): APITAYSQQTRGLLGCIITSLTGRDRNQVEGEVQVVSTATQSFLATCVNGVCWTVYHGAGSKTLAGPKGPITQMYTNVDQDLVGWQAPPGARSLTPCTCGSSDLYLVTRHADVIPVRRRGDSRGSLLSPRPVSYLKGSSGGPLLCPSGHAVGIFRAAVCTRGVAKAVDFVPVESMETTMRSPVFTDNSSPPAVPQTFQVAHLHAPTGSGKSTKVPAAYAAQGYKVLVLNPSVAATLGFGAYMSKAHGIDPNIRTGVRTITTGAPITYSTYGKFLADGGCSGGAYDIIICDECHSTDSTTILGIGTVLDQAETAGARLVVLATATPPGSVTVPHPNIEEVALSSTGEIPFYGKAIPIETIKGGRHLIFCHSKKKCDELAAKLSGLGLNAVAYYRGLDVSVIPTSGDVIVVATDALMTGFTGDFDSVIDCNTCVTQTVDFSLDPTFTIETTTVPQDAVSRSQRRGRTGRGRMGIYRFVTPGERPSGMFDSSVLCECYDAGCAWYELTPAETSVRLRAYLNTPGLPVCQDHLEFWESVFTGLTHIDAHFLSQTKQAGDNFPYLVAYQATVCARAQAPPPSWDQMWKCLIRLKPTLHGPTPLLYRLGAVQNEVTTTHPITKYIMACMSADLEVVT

[3] = HLM stability; type: in vitro ADME
[4] = test system: HCV genotype 1a replicon (1a-H77); test: microbe, parasite or virus in culture; type: cell-based; settings: Hepatitis C virus, read-out: EC50 in a replicon cell line assay in a 1a-H77 background
[5] = test system: HCV genotype 1b replicon (1b-Con-1); test: microbe, parasite or virus in culture; type: cell-based; settings: Hepatitis C virus, read-out: EC50 in a replicon cell line assay in a 1b-con1 background

recombinant HCV NS3 protease, genotype 1a, sequence (P27958 1027-1657, other chains not shown): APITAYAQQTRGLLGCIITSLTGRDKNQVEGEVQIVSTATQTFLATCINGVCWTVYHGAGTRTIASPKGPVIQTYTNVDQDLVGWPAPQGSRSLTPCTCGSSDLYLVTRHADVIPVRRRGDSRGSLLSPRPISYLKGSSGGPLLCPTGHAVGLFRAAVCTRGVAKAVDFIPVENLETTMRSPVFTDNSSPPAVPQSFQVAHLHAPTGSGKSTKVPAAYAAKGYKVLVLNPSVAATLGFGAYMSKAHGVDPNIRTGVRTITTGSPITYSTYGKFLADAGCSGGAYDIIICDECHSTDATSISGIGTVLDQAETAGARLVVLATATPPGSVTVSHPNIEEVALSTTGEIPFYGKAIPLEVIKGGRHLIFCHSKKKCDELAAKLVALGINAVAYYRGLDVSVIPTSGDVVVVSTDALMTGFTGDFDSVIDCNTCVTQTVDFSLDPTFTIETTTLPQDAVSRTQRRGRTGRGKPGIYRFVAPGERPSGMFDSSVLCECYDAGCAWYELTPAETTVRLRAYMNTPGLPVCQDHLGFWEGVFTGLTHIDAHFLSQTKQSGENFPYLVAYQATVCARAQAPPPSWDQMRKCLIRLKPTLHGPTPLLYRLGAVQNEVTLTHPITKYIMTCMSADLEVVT

SMILES	IC50 [1] [nM]	IC50 [2] [nM]	HLM stability value [3] [µL/min/mg]	EC50 [4] [nM]	EC50 [5] [nM]
CCc1nc2ccccc2nc1O[C@@H]1C[C@H]2C(=O)N[C@]3(C(=O)NS(=O)(=O)C4(C)CC4)C[C@H]3CC(F)(F)CCCCC[C@H](NC(=O)OC(C)(C)C)C(=O)N2C1 [Example 8, tert-butyl (2R,6S ,13aS,14aR,16aS)-2-(3-ethylquinoxalin-2-yloxy)-12,12-difluoro-14a-(1-methylcyclopropylsulfonylcarbamoyl)-5,16-dioxooctadecahydrocyclopropa[e]pyrrolo[1,2-a][1,4]diazacyclopentadecin-6-ylcarbamate]	0.1 to 0.5	0.1 to 0.5	> 100	2 to 5	1 to 2
Cn1ccc(C(=O)N[C@H]2CCCCCC(F)(F)C[C@@H]3C[C@@]3(C(=O)NS(=O)(=O)C3CC3)NC(=O)[C@@H]3C[C@@H](Oc4nc5ccccc5nc4-c4cc5ccccc5o4)CN3C2=O)n1 [Example 17, (2R,6S,13aS,14aR,16aS)-2-(3-(benzofuran-2-yl)quinoxaline-2-yloxy)-N-(cyclopropylsulfonyl)-12,12-difluoro-6-(1-methyl-1H-pyrazole-3-carboxamido)-5,16-dioxooctadecahydrocyclopropa[e]pyrrolo [1,2-a][1,4]diazacyclopentadecine-14a-carboxamide]	0.1 to 0.5	< 0.1	< 50		
Cc1cc(C(=O)N[C@H]2CCCCCC(F)(F)C[C@@H]3C[C@@]3(C(=O)NS(=O)(=O)C3CC3)NC(=O)[C@@H]3C[C@@H](Oc4nc5ccccc5c5ccccc45)CN3C2=O)nn1C [Example 21, (2R,6S,13aS,14aR,16a5)-N-(cyclopropylsulfonyl)-6-(1,5-dimethyl-1H-pyrazole-3-carboxamido)-12,12-difluoro-5,16-dioxo-2-(phenanthridin-6-yloxy)octadecahydrocyclopropa[e]pyrrolo[1,2-a][1,4]diazacyclopentadecine-14a-carboxamide]			< 50		
Cc1cc(C(=O)N[C@H]2CCCCCC(F)(F)C[C@@H]3C[C@@]3(C(=O)NS(=O)(=O)C3CC3)NC(=O)[C@@H]3C[C@@H](Oc4nc5ccccc5nc4-c4cc5ccccc5o4)CN3C2=O)no1 [Example 16, N-((2R,6S,13aS,14aR,16aS)-2-(3-(benzofuran-2-yl)quinoxaline-2-yloxy)-14a-(cyclopropylsulfonylcarbamoyl)-12,12-difluoro-5,16-dioxooctadecahydrocyclopropa[e]pyrrolo[1,2-a][1,4]diazacyclopentadecin-6-yl)-5-methylisoxazole-3-carboxamide]	0.1 to 0.5	0.1 to 0.5			
CCc1nc2ccccc2nc1O[C@@H]1C[C@H]2C(=O)N[C@]3(C(=O)NS(=O)(=O)C4CC4)C[C@H]3CC(F)(F)CCCCC[C@H](NC(=O)OC(C)(C)C)C(=O)N2C1 [Example 7, tert-butyl (2R,6S,13aS,14aR,16aS)-14a-(cyclopropylsulfonylcarbamoyl)-2-(3-ethylquinoxalin-2-yloxy)-12,12-difluoro-5,16-dioxooctadecahydrocyclopropa[e]pyrrolo [1,2-a][1,4]diazacyclopentadecin-6-ylcarbamate]	0.5 to 1	0.1 to 0.5	> 100	2 to 5	1 to 2
Cc1cc(C(=O)N[C@H]2CCCCCC(F)(F)C[C@@H]3C[C@@]3(C(=O)NS(=O)(=O)C3CC3)NC(=O)[C@@H]3C[C@@H](Oc4nc5ccccc5nc4-c4nc5ccccc5s4)CN3C2=O)no1 [Example 14, N-((2R,6S,13aS,14aR,16aS)-2-(3-(benzo[d]thiazol-2-yl)quinoxalin-2-yloxy)-14a-(cyclopropylsulfonylcarbamoyl)-12,12-difluoro-5,16-dioxooctadecahydrocyclopropa[e]pyrrolo [1,2-a][1,4]diazacyclopentadecin-6-yl)-5-methylisoxazole-3-carboxamide]	0.1 to 0.5	0.1 to 0.5	< 50	2 to 5	1 to 2
Cc1cc(C(=O)N[C@H]2CCCCCC(F)(F)C[C@@H]3C[C@@]3(C(=O)NS(=O)(=O)C3CC3)NC(=O)[C@@H]3C[C@@H](Oc4nc5ccccc5nc4C)CN3C2=O)no1 [Example 4, N-((2R,6S,13aS,14aR,16aS)-14a-(cyclopropylsulfonylcarbamoyl)-12,12-difluoro-2-(3-methylquinoxalin-2-yloxy)-5,16-dioxooctadecahydrocyclopropa[e]pyrrolo[1,2-a][1,4]diazacyclopentadecin-6-yl)-5-methylisoxazole-3-carboxamide]			< 50		
CC(C)(C)OC(=O)N[C@H]1CCCCCC(F)(F)C[C@@H]2C[C@@]2(C(=O)NS(=O)(=O)C2CC2)NC(=O)[C@@H]2C[C@@H](Oc3nc4ccccc4nc3-c3ccccc3)CN2C1=O [Example 5, tert-butyl (2R,6S ,13aS,14aR,16aS)-14a-(cyclopropylsulfonylcarbamoyl)-12,12-difluoro-5,16-dioxo-2-(3-phenylquinoxalin-2-yloxy)octadecahydrocyclopropa[e]pyrrolo[1,2-a][1,4]diazacyclopentadecin-6-ylcarbamate]	0.5 to 1	0.5 to 1			
CCc1nc2ccccc2nc1O[C@@H]1C[C@H]2C(=O)N[C@]3(C(=O)NS(=O)(=O)C4CC4)C[C@H]3CC(F)(F)CCCCC[C@H](NC(=O)c3cc(C)on3)C(=O)N2C1 [Example 9, N-((2R,6S ,13aS,14aR,16aS)-14a-(cyclopropylsulfonylcarbamoyl)-2-(3-ethylquinoxalin-2-yloxy)-12,12-difluoro-5,16-dioxooctadecahydrocyclopropa[e]pyrrolo[1,2-a][1,4]diazacyclopentadecin-6-yl)-5-methylisoxazole-3-carboxamide]	0.5 to 1	0.1 to 0.5	< 50	2 to 5	1 to 2
Cc1cnc(C(=O)N[C@H]2CCCCCC(F)(F)C[C@@H]3C[C@@]3(C(=O)NS(=O)(=O)C3CC3)NC(=O)[C@@H]3C[C@@H](Oc4nc5ccccc5c5ccccc45)CN3C2=O)cn1 [Example 20, (2R,6S,13aS,14aR,16aS)-N-(cyclopropylsulfonyl)-12,12-difluoro-6-(5-methylpyrazine-2-carboxamido)-5,16-dioxo-2-(phenanthridin-6-yloxy)octadecahydrocyclopropa[e]pyrrolo[1,2-a][1,4]diazacyclopentadecine-14a-carboxamide]			< 50		
CC(C)(C)OC(=O)N[C@H]1CCCCCC(F)(F)C[C@@H]2C[C@@]2(C(=O)NS(=O)(=O)C2CC2)NC(=O)[C@@H]2C[C@@H](Oc3cnc4ccccc4n3)CN2C1=O [Example 1, tert-butyl(2R,6S,13aS,14aR,16aS)-14a-(cyclopropylsulfonylcarbamoyl)-12,12-difluoro-5,16-dioxo-2-(quinoxalin-2-yloxy)octadecahydrocyclopropa[e]pyrrolo[1,2-a][1,4]diazacyclopentadecin-6-ylcarbamate]	> 1	> 1	50 to 100		
CCc1nc2ccccc2nc1O[C@@H]1C[C@H]2C(=O)N[C@]3(C(=O)NS(=O)(=O)C4(C)CC4)C[C@H]3CC(F)(F)CCCCC[C@H](NC(=O)c3cc(C)on3)C(=O)N2C1 [Example 10, N-((2R,6S,13aS,14aR,16aS)-2-(3-ethylquinoxalin-2-yloxy)-12,12-difluoro-14a-(1-methylcyclopropylsulfonylcarbamoyl)-5,16-dioxooctadecahydrocyclopropa[e]pyrrolo [1,2-a][1,4]diazacyclopentadecin-6-yl)-5-methylisoxazole-3-carboxamide]			< 50	2 to 5	1 to 2
Cc1nc2ccccc2nc1O[C@@H]1C[C@H]2C(=O)N[C@]3(C(=O)NS(=O)(=O)C4CC4)C[C@H]3CC(F)(F)CCCCC[C@H](NC(=O)OC(C)(C)C)C(=O)N2C1 [Example 3, tert-butyl (2R,6S,13aS,14aR,16aS)-14a-(cyclopropylsulfonylcarbamoyl)-12,12-difluoro-2-(3-methylquinoxalin-2-yloxy)-5,16-dioxooctadecahydrocyclopropa[e]pyrrolo[1,2-a][1,4]diazacyclopentadecin-6-ylcarbamate]	0.1 to 0.5	0.1 to 0.5			
Cc1cc(C(=O)N[C@H]2CCCCCC(F)(F)C[C@@H]3C[C@@]3(C(=O)NS(=O)(=O)C3CC3)NC(=O)[C@@H]3C[C@@H](Oc4nc5ccccc5nc4-c4ccccc4)CN3C2=O)no1 [Example 6, N-((2R,6S,13aS,14aR,16aS)-14a-(cyclopropylsulfonylcarbamoyl)-12,12-difluoro-5,16-dioxo-2-(3-phenylquinoxalin-2-yloxy)octadecahydrocyclopropa[e]pyrrolo[1,2-a][1,4]diazacyclopentadecin-6-yl)-5-methylisoxazole-3-carboxamide]			< 50		
Cc1cc(C(=O)N[C@H]2CCCCCC(F)(F)C[C@@H]3C[C@@]3(C(=O)NS(=O)(=O)C3CC3)NC(=O)[C@@H]3C[C@@H](Oc4cnc5ccccc5n4)CN3C2=O)no1 [Example 2, N-((2R,6S,13aS,14aR,16aS)-14a-(cyclopropylsulfonylcarbamoyl)-12,12-difluoro-5,16-dioxo-2-(quinoxalin-2-yloxy)octadecahydrocyclopropa[e]pyrrolo[1,2-a][1,4]diazacyclopentadecin-6-yl)-5-methylisoxazole-3-carboxamide]			< 50		
Cc1cc(C(=O)N[C@H]2CCCCCC(F)(F)C[C@@H]3C[C@@]3(C(=O)NS(=O)(=O)C3CC3)NC(=O)[C@@H]3C[C@@H](Oc4nc5ccccc5c5ccccc45)CN3C2=O)no1 [Example 18, N-((2R,6S,13aS,14aR,16aS)-14a-(cyclopropylsulfonylcarbamoyl)-12,12-difluoro-5,16-dioxo-2-(phenanthridin-6-yloxy)octadecahydrocyclopropa[e]pyrrolo[1,2-a][1,4]diazacyclopentadecin-6-yl)-5-methylisoxazole-3-carboxamide]				< 1	< 1
